Results from publication PMC3156940 (Biochimica et biophysica acta, 2011).

Target: KirBac1.1 (His6-KirBac1.1) (Burkholderia pseudomallei, UniProt P83698)
Details: 200 nM [3H]cholesterol, 0.1% CHAPS, pH 7.5, 37 °C, 2 h

Chain of KirBac1.1 (His6-KirBac1.1) (P83698 1-333): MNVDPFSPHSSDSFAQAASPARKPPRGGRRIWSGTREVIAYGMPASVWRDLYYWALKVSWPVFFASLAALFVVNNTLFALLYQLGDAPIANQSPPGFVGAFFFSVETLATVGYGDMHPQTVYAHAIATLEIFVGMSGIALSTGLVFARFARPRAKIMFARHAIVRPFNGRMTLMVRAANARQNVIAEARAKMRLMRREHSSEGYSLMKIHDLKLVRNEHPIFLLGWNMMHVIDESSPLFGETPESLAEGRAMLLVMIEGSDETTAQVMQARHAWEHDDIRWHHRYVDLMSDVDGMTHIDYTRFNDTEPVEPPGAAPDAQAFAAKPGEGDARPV

| SMILES | competition with [3H]cholesterol |
| --- | --- |
| C[C@H](CCCC(C)(C)O)[C@H]1CC[C@H]2[C@@H]3CC=C4C[C@@H](O)CC[C@]4(C)[C@H]3CC[C@]12C [25-hydroxycholesterol] | 25-hydroxycholesterol was a significantly weaker competitor |
| CC(C)CCC[C@@H](C)[C@H]1CC[C@H]2[C@@H]3CC=C4C[C@H](O)CC[C@]4(C)[C@H]3CC[C@]12C [epicholesterol] | epicholesterol efficiently competed with cholesterol for the channel binding |
